Consider one compound from US9376424B2, “Methods for treating post traumatic stress disorder” (AZEVAN PHARMACEUTICALS, INC., priority 2010, dated 2016).

One experiment has as its target T1, V1b receptor (Homo sapiens, UniProt P47901).
T1 construct: expressed in transfected cells; host or cells: CHO-K1 (ATCC), vector PCI-neo
T1 sequence (P47901 1-424): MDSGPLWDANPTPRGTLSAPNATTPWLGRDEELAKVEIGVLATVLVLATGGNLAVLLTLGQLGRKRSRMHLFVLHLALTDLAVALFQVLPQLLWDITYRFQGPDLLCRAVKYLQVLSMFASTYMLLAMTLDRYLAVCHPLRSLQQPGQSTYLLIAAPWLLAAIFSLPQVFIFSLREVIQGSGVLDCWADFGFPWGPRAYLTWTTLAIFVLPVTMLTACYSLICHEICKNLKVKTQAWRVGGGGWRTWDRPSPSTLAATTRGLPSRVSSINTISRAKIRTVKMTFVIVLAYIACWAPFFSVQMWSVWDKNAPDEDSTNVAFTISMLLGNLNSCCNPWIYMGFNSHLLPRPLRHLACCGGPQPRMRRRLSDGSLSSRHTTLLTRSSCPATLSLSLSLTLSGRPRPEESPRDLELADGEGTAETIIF
Kind of experiment: Human or rat vasopressin V1b cell-based receptor binding assay. Conditions: selectivity table; read-out: inhibition data (Ki, nM), Receptor V1b. The text has this:
Human vasopression V1b receptor-expressing cells. Human vasopressin receptor 1b (hV1b) cDNA (see, Lolait et al., “Extrapituitary expression of the rat V1b vasopressin receptor gene” Proc. Natl. Acad. Sci. USA. 92:6783-7 (1995); de Keyzer et al., “Cloning and characterization of the human V3(V1b) pituitary vasopressin receptor” FEBS Lett. 356:215-20 (1994); Sugimoto et al., “Molecular cloning and functional expression of a cDNA encoding the human V1b vasopressin receptor” J. Biol. Chem. 269:27088-92 (1994)) was inserted into a mammalian cell expression vector PCI-neo (Promega) at EcoR1 site. The recombinant plasmid carrying hV1b cDNA was identified from transformed E. Coli clones and used for the transfection of Chinese hamster ovary cell (CHO-K1, ATCC). Two micrograms of hV1b receptor DNA was introduced into 10^5 CHO cells cultured in 6-well plate, using Fugene-6 mediated transfection technique (Boehringer Mannheim). Twenty-four hrs post transfection, Cells were then cultured under selection of G-418 (0.25 mg/ml) supplemented to the culture medium. Three days later, limited dilution was carried out to obtain single cell clones in 96-well plates. […]
Human or rat vasopression V1b cell-based receptor binding assay. […] Samples were counted in a liquid scintillation counter (Beckman LS3801). IC50 and Ki values were calculated using Prism Curve fitting software. […]

The next experiment deals with V2 (Homo sapiens, UniProt P30518). Kind of experiment: V2 receptor inhibition data (Ki). Conditions: selectivity table. Format: binding.
For experiment [1], the system named is adult male Long Evans rats. Briefly: Light:Dark Shuttle Box. Format: in vivo, rat. On the procedure:
Anxiolytic Effect in the Light:Dark Shuttle Box. The light:dark shuttle box is a standard and well characterized assay for anxiolytic effects of a test compound. Rats naturally avoid the light side of the box because it is stressful. Increased time on the light side by the treatment group compared to control reflects an anxiolytic effect (Bourin and Hascoet, 2003). Adult male Long Evans rats were administered AVN251 (0.1-2 mg/kg) by oral gavage 90 min prior to testing in a light: dark shuttle box.

Sequence of V2 (P30518 whole entry): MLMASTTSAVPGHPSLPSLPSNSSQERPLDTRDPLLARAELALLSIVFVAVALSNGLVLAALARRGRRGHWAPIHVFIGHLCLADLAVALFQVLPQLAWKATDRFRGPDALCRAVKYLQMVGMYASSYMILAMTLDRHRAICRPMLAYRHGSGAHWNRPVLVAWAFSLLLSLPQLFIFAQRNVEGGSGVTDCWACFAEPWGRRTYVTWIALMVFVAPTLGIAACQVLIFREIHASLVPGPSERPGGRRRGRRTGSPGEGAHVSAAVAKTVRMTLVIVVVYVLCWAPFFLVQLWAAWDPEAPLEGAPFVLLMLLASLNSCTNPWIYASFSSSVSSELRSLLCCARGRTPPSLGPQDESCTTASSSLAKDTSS

The term Ki denotes the equilibrium dissociation constant of an inhibitor or competing ligand from its target. For `CN(Cc1cccc(C(F)(F)F)c1)C(=O)[C@@H](CC(=O)N1CCC(N2CCCCC2)CC1)N1C(=O)[C@@H](N2C(=O)OC[C@@H]2c2ccccc2)[C@H]1C=Cc1ccccc1` [Example 225, 2(R)-[[4-(Piperidinyl)piperidinyl]carbonylmethyl]-2-[3(S)-(4(S)-phenyloxazolidin-2-on-3-yl)-4(R)-(2-styryl)azetidin-2-on-1-yl]acetic acid N-methyl-N-(3-trifluoromethylbenzyl)amide], the Ki on V1b receptor is over 1000 nM. Moreover, on V2, the Ki is over 1000 nM. In addition, in experiment [1] (0.1-2 mg/kg oral gavage 90 min prior to testing), the anxiety vs. vehicle result was “dose dependent decrease in anxiety”. In experiment [1] (1 or 2 mg/kg oral gavage), the “light-dark entries (FIG. 2C)” value is given as “more light-dark entries”, the “time in the dark (FIG. 2B)” value is given as “less time in the dark” and the “time in the light (FIG. 2A)” value is listed as “significantly more time in the light”.
